Reference: PMC8537218, “Discovery of a Novel Class of Norovirus Inhibitors with High Barrier of Resistance” (Pharmaceuticals, 2021)
Values joined by “and” are separate entries in the source; they are usually repeats but may differ in a detail not shown here. Equal entries are not always repeated. “Also recorded” adds a separate entry of the source. Where two headings read alike, the source gives them in different places.

Tests used:
MNV [1] = assay: Time-of-drug-addition assay (TOA) in MNV-infected RAW 264.7 cells; assay type: cell-based, Murine norovirus
Description: RAW 264.7 cells (4 × 10^5 cells/mL) were infected with MNV (MOI of 1). After 1 h at 4 °C, cells were washed with cold (4 °C) DMEM to remove unbound viruses. Cells were incubated at 37 °C to start the infection. To study the replication kinetics of MNV supernatant and cells were harvested, from untreated cultures, every 2 h until 24 h post-infection (pi) and viral RNA was quantified by RT-qPCR. In parallel, another set of infected cultures were treated with compound. The compound was added at 2 h intervals and cultures were further incubated until 24 h pi, supernatant and cells were collected separately for determination of the viral RNA by RT-qPCR. The isolation of the extracellular MNV RNA from cell culture supernatant was done by the NucleoSpin RNA Virus Kit (Macherey–Nagel), and the intracellular RNA was extracted from cells by the RNeasy kit (Qiagen).

[2] = tested on: compound 6res MNV variants; assay: Antiviral assay on selected compound 6res MNV variants in RAW 264.7 cells; assay type: cell-based, Murine norovirus
Description: RAW 264.7 cells (1 × 10^4 cells/well) were seeded into the wells of 96-well plate and were infected with MNV.CW1 in the presence of a dilution series of compounds. When CPE was visible in the virus control (no compound), all the wells were scored for visible CPE. Virus was harvested from the wells in which CPE was observed under the highest compound pressure. The resistant virus was then diluted to 1:5 and used to infect a new 96-well plate under the same conditions to continue. […] MNV^res viruses were analyzed by deep sequencing by the group of Prof. Matthijnssens as described previously. The assembled sequence of the untreated MNV, that was passaged in parallel, was used as reference to align the MNV variants that were under compound pressure.
(§1) The assessment of the antiviral activity of compounds on resistant viruses was performed similarly as the regular antiviral assay on MNV. First, the titer of the resistant viruses was determined by endpoint titration. A concentration of 30× TCID50 was used for each virus in the antiviral assays. RAW 264.7 cells (1 × 10^4 cells/well) were seeded in the presence of a dilution series of compounds and infected. Antiviral activity was determined using the MTS method. The 50% effective concentration (EC50) was defined as the compound concentration that protected 50% of the cells from CPE.

MNV RdRp = MNV RdRp (Norovirus, UniProt Q80J95); assay: In vitro enzymatic inhibition assay with MNV RdRp; assay type: biochemical, Murine norovirus; details: 3.4 µM MNV RdRp, poly(U) template, 100 µM ATP, compound 0 to 100 µM
Sequence of MNV RdRp (Q80J95 1178-1687): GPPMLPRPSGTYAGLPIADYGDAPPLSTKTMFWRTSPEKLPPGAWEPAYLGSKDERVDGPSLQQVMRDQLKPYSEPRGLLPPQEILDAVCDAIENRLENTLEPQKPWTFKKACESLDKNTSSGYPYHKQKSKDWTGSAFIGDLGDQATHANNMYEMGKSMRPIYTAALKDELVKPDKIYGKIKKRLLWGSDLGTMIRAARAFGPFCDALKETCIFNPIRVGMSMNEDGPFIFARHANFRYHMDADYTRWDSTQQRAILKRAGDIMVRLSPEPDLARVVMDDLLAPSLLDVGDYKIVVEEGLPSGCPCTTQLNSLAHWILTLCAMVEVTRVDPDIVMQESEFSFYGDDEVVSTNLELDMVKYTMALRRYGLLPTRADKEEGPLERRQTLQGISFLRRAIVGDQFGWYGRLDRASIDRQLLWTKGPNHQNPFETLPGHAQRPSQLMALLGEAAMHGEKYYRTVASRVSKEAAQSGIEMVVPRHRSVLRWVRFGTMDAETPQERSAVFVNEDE
Description: Compound 6 was tested to determine its effects on the polymerase activity. The formation of dsRNA, from a single-stranded poly(U) template (Sigma-Aldrich, 10 µg) and 100 µM ATP, was followed for 1 h at 30 °C on a TECAN Infinite 200 PRO microplate reader, measuring the growth of PicoGreen fluorescence (Ex/Em = 485/530 nm) after the addition of 3.4 µM MNV RdRp and of increasing amounts of compound 6 (from 0 to 100 µM), in a reaction mixture containing 20 mM Tris/HCl (pH 7.5), 25 mM NaCl, 0,3 mM MnCl2, 5 mM MgCl2, 1 mM DTT, 2 U RiboLock Ribonuclease inhibitor (Life technologies). The final fluorescence values were calculated as the average of four independent experiments. Measurement of the activity (i.e., linear slope of fluorescence increase in time) vs. compound 6 concentration was used to estimate the IC50 value of the compound with the program GraFit5 (Erithacus software).

MNV [3] = assay: MNV virus yield assay, viral RNA by RT-qPCR; assay type: cell-based, Murine norovirus; details: viral RNA levels by RT-qPCR
Description: The supernatants of treated or untreated infected cells were harvested. The viral RNA was isolated from supernatant using the NucleoSpin RNA Virus Kit (Macherey–Nagel), according to the manufacturer’s protocol and was quantified by RT-qPCR. A one-step RT-qPCR was performed in a reaction mixture of 20 μL containing 10 μL reaction mix from the iTaq Universal Probes One-Step Kit (Bio-Rad), 0.5 μL reverse transcriptase, 4 μL template RNA, primers, and probe.

[4] = tested on: Murine norovirus type 1, strain CW1; assay: MNV-induced CPE reduction assay (MTS read-out) in RAW 264.7 cells; assay type: cell-based; details: MNV CW1, RAW 264.7 cells, read-out: MNV EC50 ± SD
Description: Norovirus: The experiment was performed as described earlier. In short, RAW 264.7 cells (1 × 10^4 cells/well) were infected with MNV.CW1 in the presence of a dilution series of compounds. Antiviral activity and cytotoxicity were determined using a colometric assay using 3-(4,5-dimethylthiazol-2-yl)-5-(3-carboxymethoxyphenyl)-2-(4-sulfophenyl)-2H-tetrazolium (MTS). The 50% effective concentration (EC50) was defined as the compound concentration that protected 50% of the cells from CPE. The cell viability % was calculated as (ODtreated/ODCC) […] and the 50% cytotoxic concentration (CC50) was defined as the compound concentration that reduces the number of viable cells by 50%.

[5] = tested on: HuNoV GI.1 replicon (Norwalk replicon); assay: HuNoV GI.1 replicon assay in HG23 cells (RT-qPCR); assay type: cell-based, Human norovirus
Description: HuNoV GI.1 replicon: The experiment was performed as described earlier with minor modifications. In short, HG23 cells (7.5 × 10^2 cells/well) were seeded into the wells of a 96-well plate without G418 (Geneticin Selective Antibiotic). After 24 h of incubation, serial dilutions of compounds were added. Cells were further incubated for 72 h, then cells were collected for RNA load quantification by RT-qPCR. To determine relative levels of Norwalk virus replicon RNA, β-actin was used as a normalizer and ratios were calculated as previously described.

[6] = tested on: MNV.CW3/S131T and MNV.CW3/Y154F; assay: Antiviral assay on reverse-engineered MNV.CW3 mutant viruses (S131T, Y154F); assay type: cell-based, Murine norovirus; details: single mutations S131T or Y154F in MNV backbone
Description: The desired mutations were introduced into the MNV.CW3 cDNA clones using the QuikChange II XL mutagenesis kit (Agilent) according to the manufacturer’s instructions. The presence of the desired mutation in the produced construct was confirmed by PCR and sequencing was done by Macrogen Inc. Sequences were analyzed and mutations were detected using the Geneious software.
The MNV.CW3 mutant viral stocks were obtained by transfecting the mutated plasmid pMNV CW3 (kindly provided by Prof. Wobus, University of Michigan) in Huh 7 Lunet cells expressing the MNV receptor CD300lf (kindly provided by Prof. Taube, University of Lübeck). Huh-7 CD300lf cells were cultured under selective pressure of G418. The Huh-7 CD300lf cells were seeded in 6-well plates at a density of 2 × 10^5 cells/mL in 2.5 mL of complete media. After 24 h, the cells were transfected with 2.5 μg of pMNV CW3 plasmid DNA using the TransIT mRNA Transfection Kit (Mirus Bio Corporation) according to the manufacturer’s protocol. Red fluorescent protein (RFP) was used as a positive control for transfection. Transfected cells were incubated for 48 h, cells underwent two freeze thaw cycles and the virus was harvested from the supernatants after centrifugation (10 min, 1000× g) and stored at −80 °C. Virus stocks were passaged for three times on BV-2 cells and followed by two consecutive passages on RAW 264.7 cells. Viral titers were determined by serial dilutions on RAW 264.7 cells seeded in 96-well plates.
as §1

SMILES: Cc1cc(C)cc(S(=O)(=O)c2c(C(=O)NCc3ccc(CO)cc3)[nH]c3ccc(Cl)cc23)c1 [compound 6, 5-Chloro-3-((3,5-dimethylphenyl)sulfonyl)-N-(4-(hydroxymethyl)benzyl)-1H-indole-2-carboxamide]
- time of addition after which the antiviral effect was lost (MNV [1]; MNV MOI 1, RAW 264.7 cells, compound added at 2 h intervals): 6–8 h pi
- step of the MNV replication cycle at which the compound acts (MNV [1]; time-of-addition experiment): onset of the viral genome replication
- shift in EC50 ([2]; mutants 1 and 3 together): 6–8 fold
- shift in EC50 values ([2]; resistant variant mutant 1 (first value), after 30 passages): 8.6 fold
- shift in EC50 values ([2]; resistant variant mutant 3, after 30 passages): 6.2 fold
- direct inhibition of the norovirus polymerase (competition with natural substrate) (MNV RdRp): no direct competition; also recorded: could not directly inhibit the active site of the enzyme
- EC50 (MNV [3]): 210 ± 30 nM
- EC50 ([4]; RAW264.7, concentration inhibiting norovirus induced cell death (CPE) by 50%): 200 ± 100 nM
- EC50 ([4]; concentration inhibiting norovirus induced cell death (CPE) by 50%): 160 ± 60 nM
- EC50 ([5]; Norovirus, HG23, 72 h, read-out: HuNoV Replicon EC50 ± SD (µM), Norwalk replicon (human GI.1), HG23 cells, 72 h, replicon RNA by RT-qPCR): 1.24 µM
- EC50 ([5]; Norwalk replicon (human GI.1), HG23 cells, 72 h, replicon RNA by RT-qPCR, read-out: HuNoV Replicon EC50 ± SD): 1.2 µM and ~1.7 µM
- adverse effects on the host cells ([5]; host cells of HuNoV GI.1 replicon assay): without adverse effects on the host cells
- EC50 ([5]; read-out: HuNoV Replicon EC50 ± SD, Norwalk replicon (human GI.1), HG23 cells, 72 h, replicon RNA by RT-qPCR): 1.27 ± 0.76 µM
- shift in EC50 / sensitivity of mutant viruses [6]: no shift in EC50
- melting point: 124 to 126 °C
